Read-outs that look alike come from different tables or passages of the source.
Key:
[1] = biological target: TEL-KIT fusion gene transfected cells (Ba/F3); test: Suppression of proliferation of TEL-KIT fusion gene transfected Ba/F3 cells; conditions: read-out: KIT/BaF3 proliferation inhibition (IC50); TEL-KIT expressing Ba/F3 cells, 72 hours, final concentration 0.1 to 10,000 nM;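 note: viable cells quantified via formazan from tetrazolium reduction, inhibition scaled with 0.1% DMSO control as 0% and medium-only blank as 100%, IC50 from two-parameter logistic fit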
[2] = biological target: TEL-PDGFRβ fusion gene transfected cells (Ba/F3); test: Suppression of proliferation of TEL-PDGFRβ fusion gene transfected Ba/F3 cells; assay type: cell-based, human; conditions: TEL-PDGFRβ expressing Ba/F3 cells, 72 hours, final concentration 0.1 to 10,000 nM; read-out: PDGFR β/BaF3 proliferation inhibition (IC50)
Source text: 2. Preparation of Test Substance
4. Analysis of Measurement Results

[3] = test system: pulmonary arterial smooth muscle cells; test: Suppression of proliferation of pulmonary arterial smooth muscle cells (PDGF-BB stimulation, BrdU); assay type: cell-based; conditions: PASMC, read-out: Human normal PASMC proliferation suppression (PDGF stimulation_IC50)
Method in brief: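 Test compound (final 3 to 10,000 nM) was added together with BrdU and PDGF-BB (final 10 ng/mL) to healthy human pulmonary artery smooth muscle cells held a day in 0.1% FBS. Proliferation was read after 1 day as anti-BrdU-detected BrdU incorporation.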

[4] = biological target: PDGFR-β (Homo sapiens (Human), UniProt P09619); test: PDGFR-β tyrosine kinase inhibitory action (HTRF KinEASE-TK); assay type: biochemical; conditions: PDGFR-β enzyme 1 ng/μL, 30° C. for 30 minutes; read-out: PDGF-β IC50
Method in brief: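 Recombinant PDGFR-β at 1 ng/μL final with TK substrate-3-biotin in a substrate solution containing 0.6 μM ATP; buffer 50 mM HEPES pH 7.0, 5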

[5] = 24 h, healthy human derived pulmonary arterial smooth muscle cells, human PDGF-BB 10 ng/mL stimulation, BrdU uptake after 1 day, test substance final concentration 3 to 10,000 nM
[6] = human PDGF-BB 10 ng/mL, BrdU uptake, final concentration 3 to 10,000 nM

Chain of TEL-KIT fusion gene transfected cells (Ba/F3) (P10721 26-976 limits assumed, change not shown): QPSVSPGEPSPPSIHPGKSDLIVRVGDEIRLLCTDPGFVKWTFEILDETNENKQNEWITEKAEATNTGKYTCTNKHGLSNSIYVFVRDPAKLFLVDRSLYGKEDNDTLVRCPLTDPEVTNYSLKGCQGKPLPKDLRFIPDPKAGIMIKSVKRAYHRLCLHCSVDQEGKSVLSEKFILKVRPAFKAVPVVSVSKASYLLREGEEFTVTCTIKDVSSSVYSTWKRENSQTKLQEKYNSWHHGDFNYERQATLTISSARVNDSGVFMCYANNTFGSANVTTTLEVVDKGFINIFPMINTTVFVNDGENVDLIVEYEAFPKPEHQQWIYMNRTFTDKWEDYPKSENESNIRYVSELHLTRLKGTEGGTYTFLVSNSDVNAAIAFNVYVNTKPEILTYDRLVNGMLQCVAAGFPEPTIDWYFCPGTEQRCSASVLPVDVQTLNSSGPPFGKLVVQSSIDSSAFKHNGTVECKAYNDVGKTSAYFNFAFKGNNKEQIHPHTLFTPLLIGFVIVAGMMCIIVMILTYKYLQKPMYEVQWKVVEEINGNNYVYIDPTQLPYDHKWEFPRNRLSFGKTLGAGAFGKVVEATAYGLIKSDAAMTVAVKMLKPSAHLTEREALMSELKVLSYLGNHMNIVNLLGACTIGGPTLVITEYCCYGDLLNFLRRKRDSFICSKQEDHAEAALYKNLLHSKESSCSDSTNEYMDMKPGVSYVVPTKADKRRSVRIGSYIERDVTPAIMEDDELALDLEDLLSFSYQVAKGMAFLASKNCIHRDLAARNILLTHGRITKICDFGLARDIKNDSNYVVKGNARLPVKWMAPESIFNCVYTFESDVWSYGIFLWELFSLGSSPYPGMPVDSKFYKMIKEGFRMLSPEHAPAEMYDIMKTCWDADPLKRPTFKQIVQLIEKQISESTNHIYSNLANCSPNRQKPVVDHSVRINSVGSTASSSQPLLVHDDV
Chain of PDGFR-β (P09619 33-1106): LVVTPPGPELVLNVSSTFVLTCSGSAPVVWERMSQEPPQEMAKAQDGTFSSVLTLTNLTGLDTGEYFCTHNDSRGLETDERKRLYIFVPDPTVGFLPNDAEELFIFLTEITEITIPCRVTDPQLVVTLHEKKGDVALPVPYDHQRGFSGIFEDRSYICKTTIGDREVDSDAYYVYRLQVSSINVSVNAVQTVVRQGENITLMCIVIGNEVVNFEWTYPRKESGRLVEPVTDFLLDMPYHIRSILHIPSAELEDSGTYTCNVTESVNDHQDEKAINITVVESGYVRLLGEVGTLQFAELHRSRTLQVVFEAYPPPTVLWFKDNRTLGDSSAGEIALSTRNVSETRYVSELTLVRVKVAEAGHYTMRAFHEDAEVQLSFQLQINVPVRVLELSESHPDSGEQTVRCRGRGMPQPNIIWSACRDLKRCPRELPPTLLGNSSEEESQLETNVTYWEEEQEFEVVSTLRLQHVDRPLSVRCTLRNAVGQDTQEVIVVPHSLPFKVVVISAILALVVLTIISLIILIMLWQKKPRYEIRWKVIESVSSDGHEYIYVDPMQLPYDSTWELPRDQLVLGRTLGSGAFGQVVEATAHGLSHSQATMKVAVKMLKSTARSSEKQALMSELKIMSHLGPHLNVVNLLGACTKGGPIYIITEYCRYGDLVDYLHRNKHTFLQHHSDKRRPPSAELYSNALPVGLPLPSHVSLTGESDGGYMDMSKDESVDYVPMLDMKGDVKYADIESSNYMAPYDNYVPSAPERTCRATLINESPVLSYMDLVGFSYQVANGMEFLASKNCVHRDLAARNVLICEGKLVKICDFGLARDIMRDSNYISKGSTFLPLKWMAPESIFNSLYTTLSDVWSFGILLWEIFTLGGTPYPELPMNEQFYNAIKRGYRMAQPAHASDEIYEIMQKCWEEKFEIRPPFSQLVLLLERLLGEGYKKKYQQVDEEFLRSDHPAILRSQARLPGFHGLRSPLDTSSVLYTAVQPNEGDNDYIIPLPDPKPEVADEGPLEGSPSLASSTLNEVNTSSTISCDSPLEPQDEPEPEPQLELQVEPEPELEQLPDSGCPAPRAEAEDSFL
Chain of TEL-PDGFRβ fusion gene transfected cells (Ba/F3) (P09619 33-1106 limits assumed, change not shown): as the sequence (P09619 33-1106) above

Row | SMILES | IC50 [1] [nM] | IC50 [2] [nM] | IC50 [3, 5] [nM] | IC50 [4] [nM] | IC50 [3, 6] [nM]
1 | Cc1c(F)cc(C(=O)N[C@H]2CCCC[C@@H]2O)cc1NC(=O)c1cnc(CC2CC2)s1 [Example 48, 2-(cyclopropylmethyl)-N-(3-fluoro-5-{[(1S,2S)-2-hydroxycyclohexyl]carbamoyl}-2-methylphenyl)-1,3-thiazole-5-carboxamide] | 650 | 16 | 310 | 120 | –
2 | Cc1ccc(C(=O)N[C@H]2CCCC[C@@H]2O)cc1C#Cc1cncc(-c2ccc(F)cc2)n1 [Example 71, 3-{[6-(4-fluorophenyl)pyrazin-2-yl]ethynyl}-N-[(1S,2S)-2-hydroxycyclohexyl]-4-methylbenzamide] | 570 | 6 | 43 | 42 | –
3 | Cc1ccc(C(=O)N[C@H]2CCCC[C@@H]2O)cc1NCc1cnc2ccccc2c1 [Example 96, N-[(1S,2S)-2-hydroxycyclohexyl]-4-methyl-3-{[(quinolin-3-yl)methyl]amino}benzamide] | 310 | 12 | 72 | 200 | –
4 | Cc1ccc(C(=O)N[C@H]2CCCC[C@@H]2O)cc1NC(=O)c1cncc(-c2c(F)cccc2F)c1 [Example 37, 5-(2,6-difluorophenyl)-N-(5-{[(1S,2S)-2-hydroxycyclohexyl]carbamoyl}-2-methylphenyl)pyridine-3-carboxamide] | 470 | 5.1 | 46 | 33 | –
5 | Cc1ccc(C(=O)N[C@H]2CCCC[C@@H]2O)cc1NC(=O)c1cncc(-c2ccccc2OC(F)(F)F)c1 [Example 35, N-(5-{[(1S,2S)-2-hydroxycyclohexyl]carbamoyl}-2-methylphenyl)-5-[2-(trifluoromethoxy)phenyl]pyridine-3-carboxamide] | 2200 | 17 | 320 | 160 | –
6 | Cc1ccc(C(=O)N[C@H]2CCCC[C@@H]2O)cc1NC(=O)c1cncc(-c2cccc(C(F)(F)F)c2)c1 [Example 22, N-(5-{[(1S,2S)-2-hydroxycyclohexyl]carbamoyl}-2-methylphenyl)-5-[3-(trifluoromethyl)phenyl]pyridine-3-carboxamide] | 900 | 59 | – | 14 | 100
7 | O=C(Nc1cccc(CNc2cncc(-c3ncccn3)c2)c1)N[C@@H]1CCCC[C@@H]1O [Example 159, N-[(1R,2S)-2-hydroxycyclohexyl]-N′-[3-({[5-(pyrimidin-2-yl)pyridin-3-yl]amino}methyl)phenyl]urea] | 380 | 1.7 | 21 | 26 | –
8 | Cc1ccc(C(=O)N[C@H]2CCCC[C@@H]2O)cc1CNc1cncc(-c2cccnc2)c1 [Example 146, 3-{[([3,3′-bipyridin]-5-yl)amino]methyl}-N-[(1S,2S)-2-hydroxycyclohexyl]-4-methylbenzamide] | 730 | 22 | 44 | 210 | –
9 | Cc1ccc(C(=O)N[C@H]2CCCC[C@@H]2O)cc1NC(=O)c1cncc(OC(C)C)c1 [Example 7, N-(5-{[(1S,2S)-2-hydroxycyclohexyl]carbamoyl}-2-methylphenyl)-5-[(propan-2-yl)oxy]pyridine-3-carboxamide] | 1900 | 43 | – | 170 | 150
10 | Cc1ccc(C(=O)N[C@H]2CCCC[C@@H]2O)cc1NC(=O)c1cncc(-c2ccccc2Cl)c1 [Example 13, 5-(2-chlorophenyl)-N-(5-{[(1S,2S)-2-hydroxycyclohexyl]carbamoyl}-2-methylphenyl)pyridine-3-carboxamide] | 790 | 17 | – | 140 | 100
11 | Cc1ccc(C(=O)N[C@H]2CCCC[C@@H]2O)cc1NC(=O)c1cncc(-c2ccc(Cl)cc2)c1 [Example 9, 5-(4-chlorophenyl)-N-(5-{[(1S,2S)-2-hydroxycyclohexyl]carbamoyl}-2-methylphenyl)pyridine-3-carboxamide] | 530 | 22 | – | 26 | 46
12 | O=C(N[C@H]1CCCC[C@@H]1O)c1ccc(Cl)c(C#Cc2cncc(-c3ccccc3)c2)c1 [Example 58, 4-chloro-N-[(1S,2S)-2-hydroxycyclohexyl]-3-[(5-phenylpyridin-3-yl)ethynyl]benzamide] | 1800 | 110 | 57 | 12 | –
13 | Cc1ccc(C(=O)N[C@H]2CCCC[C@@H]2O)cc1NCc1cnc2ccsc2c1 [Example 108, N-[(1S,2S)-2-hydroxycyclohexyl]-4-methyl-3-{[(thieno[3,2-b]pyridin-6-yl)methyl]amino}benzamide] | 300 | 2.3 | 85 | 51 | –
14 | Cc1ccc(C(=O)N[C@H]2CCCC[C@@H]2O)cc1OCc1cncc(-c2cccnc2)c1 [Example 165, 3-[([3,3′-bipyridin]-5-yl)methoxy]-N-[(1S,2S)-2-hydroxycyclohexyl]-4-methylbenzamide] | 2900 | 9 | 46 | 390 | –
15 | Cc1ccc(C(=O)N[C@H]2CCCC[C@@H]2O)cc1C#Cc1cncc(-c2cnccn2)c1 [Example 63, N-[(1S,2S)-2-hydroxycyclohexyl]-4-methyl-3-{[5-(pyrazin-2-yl)pyridin-3-yl]ethynyl}benzamide] | 240 | 0.8 | 10 | 15 | –
16 | Cc1ccc(C(=O)N[C@H]2CCCC[C@@H]2O)cc1NC(=O)c1cnc(NC2CC(F)(F)C2)s1 [Example 25, 2-[(3,3-difluorocyclobutyl)amino]-N-(5-{[(1S,2S)-2-hydroxycyclohexyl]carbamoyl}-2-methylphenyl)-1,3-thiazole-5-carboxamide] | > 10000 | 50 | – | 39 | 230
17 | Cc1ccc(C(=O)N[C@H]2CCCC[C@@H]2O)cc1NC(=O)c1cncc(-c2cccc(OC(F)(F)F)c2)c1 [Example 34, N-(5-{[(1S,2S)-2-hydroxycyclohexyl]carbamoyl}-2-methylphenyl)-5-[3-(trifluoromethoxy)phenyl]pyridine-3-carboxamide] | 540 | 8 | 130 | 19 | –
18 | Cc1ccc(C(=O)N[C@H]2CCCC[C@@H]2O)cc1NCc1cncc(-c2ccc(N)cc2)c1 [Example 99, 3-({[5-(4-aminophenyl)pyridin-3-yl]methyl}amino)-N-[(1S,2S)-2-hydroxycyclohexyl]-4-methylbenzamide] | 480 | 0.5 | 27 | 13 | –
19 | C[C@H](Nc1cc(C(=O)N[C@H]2CCCC[C@@H]2O)ccc1Cl)c1cncc(-c2cccnc2)c1 [Example 90, 3-{[(1S)-1-([3,3′-bipyridin]-5-yl)ethyl]amino}-4-chloro-N-[(1S,2S)-2-hydroxycyclohexyl]benzamide] | 8300 | 35 | 360 | 310 | –
20 | Cc1ccc(C(=O)N[C@H]2CCCC[C@@H]2O)cc1C#Cc1ccc(N)nc1 [Example 65, 3-[(6-aminopyridin-3-yl)ethynyl]-N-[(1S,2S)-2-hydroxycyclohexyl]-4-methylbenzamide] | 270 | 14 | 60 | 94 | –
21 | Cc1ccc(C(=O)N[C@H]2CCCC[C@@H]2O)cc1NC(=O)c1cncc(-c2ccc(F)cc2)c1 [Example 19, 5-(4-fluorophenyl)-N-(5-{[(1S,2S)-2-hydroxycyclohexyl]carbamoyl}-2-methylphenyl)pyridine-3-carboxamide] | 1000 | 30 | – | 13 | 81
22 | Cc1ccc(C(=O)N[C@H]2CCCC[C@@H]2O)cc1Nc1ccnc(-c2cccnc2)n1 [Example 78, N-[(1S,2S)-2-hydroxycyclohexyl]-4-methyl-3-{[2-(pyridin-3-yl)pyrimidin-4-yl]amino}benzamide] | 570 | 27 | 150 | 51 | –
23 | Cc1ccc(C(=O)N[C@H]2CCCC[C@@H]2O)cc1NC(=O)c1cnc(CC2CC2)s1 [Example 3, 2-(cyclopropylmethyl)-N-(5-{[(1S,2S)-2-hydroxycyclohexyl]carbamoyl}-2-methylphenyl)-1,3-thiazole-5-carboxamide] | 620 | 1.4 | – | 82 | 30
24 | Cc1ccc(C(=O)N[C@@H]2CCCC[C@H]2O)cc1CNc1cncc(-c2ncccn2)c1 [Example 149, N-[(1R,2R)-2-hydroxycyclohexyl]-4-methyl-3-({[5-(pyrimidin-2-yl)pyridin-3-yl]amino}methyl)benzamide] | 670 | 58 | 150 | 220 | –
25 | Cc1ccc(C(=O)N[C@H]2CCCC[C@@H]2O)cc1N[C@@H](C)c1cncc(-c2ccccc2)c1 [Example 84, N-[(1S,2S)-2-hydroxycyclohexyl]-4-methyl-3-{[(1S)-1-(5-phenylpyridin-3-yl)ethyl]amino}benzamide] | 500 | 50 | 160 | 19 | –
